# Results from patent US20090170759A1, “NEUROPROTECTIVE PEPTIDES” (priority 2007, published 2009).
# “Also recorded” adds a separate entry of the source.
# Legend:
# bak = assay: EPO induced gene expression in PC12 cells, quantitative RT-PCR (bak); type: cell-based, rat; conditions: PC-12 cells
# Protocol: (§1) PC-12 cells (from a rat Pheochromocytoma) were cultured on poly-D-Lysine coated tissue culture plastic in DMEM containing 10% FBS and 5% Horse serum. To induce the neuronal phenotype in PC-12 cells, serum was removed and the cells were treated with NGF (50 ng/ml). Cells were grown for 7 days in the presence of the NGF then used for experiments.
# PC-12 cells were cultured as described in Example 1 in a 10 cm poly-D-lysine coated tissue culture dish. […] Total RNA was then isolated using a Qiagen RNAeasy mini prep kit and used for RT-PCR.
# (§2) Real time reverse transcription and PCR were performed in a single reaction using a light cycler and an RNA amplification kit from Roche Molecular Biochemicals. RNA was quantitated and added in equal amounts to reaction mix that includes the dsDNA specific dye SYBR green I. Specific PCR reaction products are quantitated by detecting the amount of fluorescence in the reaction at each PCR cycle. Final analysis was performed using the data analysis software included with the light cycler instrument.
# [1] = Plasma determinations by EPO ELISA; type: in vivo, rat; conditions: terminal sample
# Source text: Plasma Determinations: Blood samples were collected from each rat via the orbital sinus at the time of sacrifice. Plasma was separated out, frozen and analyzed by EPO ELISA for determination of plasma concentration (U/ml).
# [2] = tested on: rat cerebral cortical cultures; assay: Neurite outgrowth assay (MAP2-FITC immunofluorescence), cortical cultures; type: cell-based
# Source text: Dissociated hippocampal and cortical cell cultures were established from embryonic day 18 rat fetuses as previously described (Mattson et al., 1994). Briefly, fetuses were removed via cesarean section from pregnant moms (Sprague-Dawley) anesthetized with halothane according to the AVMA Panel on Euthanasia. Pups were decapitated and the brains were removed and placed in HEPES-buffered Hank's Balanced Salt solution (HBSS; Gibco). The hippocampi and cortices were dissected out and pooled according to tissue-type. Tissue was trypsinized for 15 min (1 mg/ml trypsin-HBSS; Worthington), rinsed with fresh HBSS, incubated in trypsin inhibitor (1 mg/ml; Sigma) for 5 min, rinsed again with fresh HBSS and then triturated in 1 ml fresh HBSS with a fire-polished glass pipette. Dissociated cells were seeded at 30,000 cells/well onto poly-D-lysine coated 96-well plates (Collaborative BioScience). Each well contained 100 μl of Eagle's Minimal Essential Media (MEM; Gibco) supplemented with 26 mM NaHCO3 (Sigma), 56 mM glucose (Sigma), 15 mM KCl (Sigma), 1 mM sodium pyruvate (Sigma), 1.1 mM L-glutamine (Sigma), 10% (v/v) heat-inactivated fetal bovine serum (Hyclone), and 0.001% gentamicin sulfate (Sigma) (pH 7.4). Cells were allowed to attach for 24 h in a humidified 37° C. 5% CO2 incubator before experimental treatment. The culture media was aspirated and exchanged with fresh media every three days.
# Twenty-four hours after plating, cultures were treated with vehicle (PBS+0.1% BSA), 100 ng of various growth factors (brain derived neurotrophic factor (BDNF; Promega), glial-derived neurotrophic factor (GDNF; Promega), nerve growth factor (NGF; Boehringer Mannheim), basic fibroblast growth factor (bFGF; Boehringer Mannheim), insulin-like growth factor-1 (IGF-1; Boehringer Mannheim), neurotrophin-3 (NT3; Calbiochem), neurotrophin-4 (NT4; Calbiochem), ciliary neurotrophic factor (CNTF; Calbiochem), epidermal growth factor (EGF; Calbiochem), vascular endothelial growth factor (VEGF; Calbiochem)), or rhEPO (prepared same as above; 10 fM-10 nM)). Each treatment condition was run in quadruplicate or octuplicate. On the third day in culture, the media was aspirated off and replaced with fresh media and test compound. At one week in culture, the cells were fixed with 10% phosphate-buffered formalin for 15 min, then rinsed with DPBS (Sigma) and placed in blocking serum for 30 min (horse serum; 1:50 dilution in DPBS; Vector Labs). Cultures were rinsed again with DPBS and then incubated in primary antibody for 2 hr (microtubule-associated protein-2 (MAP-2) is a selective marker for dendritic processes; anti-mouse monoclonal (Chemicon); 1:1000 dilution of MAP-2 in antibody diluent (Zymed)). Negative control wells were incubated in antibody diluent alone. Background signal was determined by blank wells (cell-free) incubated with or without antibody. Cultures were rinsed again with DPBS and then placed in fluorescein for 1 hr (FITC; anti-mouse IgG; rat adsorbed; 1:50 dilution in DPBS; Vector Labs). Cultures were rinsed a final time with DPBS and then the plates were read on a Cytofluor 4000 fluorescence plate reader. Neurite outgrowth was expressed as percent change from control (vehicle; mean fluorescence±SD).
# Dissociated hippocampal and cortical cell cultures were established from embryonic day 18 rat fetuses as previously described (Mattson et al., 1994). Briefly, fetuses were removed via cesarean section from pregnant moms (Sprague-Dawley) anesthetized with halothane according to the AVMA Panel on Euthanasia. Pups were decapitated and the brains were removed and placed in HEPES-buffered Hank's Balanced Salt solution (HBSS; Gibco). The hippocampi and cortices were dissected out and pooled according to tissue-type. […]
# bclXL = assay: EPO induced gene expression in PC12 cells, quantitative RT-PCR (bclXL); type: cell-based, rat; conditions: PC-12 cells
# Protocol: as §1
# PC-12 cells were cultured as described in Example 1 in a 10 cm poly-D-lysine coated tissue culture dish. Cells were incubated in the presence of 1 U/ml of EPO for 24 hr. Total RNA was then isolated using a Qiagen RNAeasy mini prep kit and used for RT-PCR.
# as §2
# PC-12 cells = assay: NGF withdrawal in PC-12 cells; type: cell-based, rat
# Protocol: as §1, with “[…] cells (from” for “PC-12 cells (from”
# PC-12 cells were cultured as described above in a 96 well poly-d-lysine coated multi-well plate and treated with rhEPO (1 pm to 10 nm) for 24 hr prior to NGF withdrawal. On the day of the experiment the cells were washed with buffer 3 times to remove NGF and then cultured in fresh media without NGF. Immediately following NGF washout cells were counted (t=0) to determine the number of living cells. Cell viability was based on morphological characteristics including phase brightness, presence of axons, and absence of blebbing. Cell counts were performed at 12 hr, 24 hr, 48 hr and 72 hr and the number of viable cells were scored.
# [3] = 1 nm EPO for 24 hr (FIG. 3 legend)
substance,measurement,setting,value
"rhEPO: purified, recombinant human EPO (rhEPO), currently formulated and distributed under the trademarks of EPREX, ERYPO, or PROCRIT",decrease in the expression of the pro-apoptotic Bak,bak; [3],greater than 5 fold
same,decrease in the expression of the pro-apoptotic gene bak,bak; EPO 1 U/ml for 24 hr,5 fold
same,"plasma concentrations, Study I",[1]; continuous infusion,correlated with the protective effect
same,"plasma concentrations, Study II","[1]; single iv bolus 1000, 2500 or 5000 U/kg",low in each group
same,"neurite outgrowth response over control, cortical cultures","[2]; Example 3, one week in culture",15-29%
same,neurite outgrowth in rat cerebral cortical cultures (in words),[2]; figure legends,promotes neurite outgrowth
same,ability to increase neurite outgrowth in cortical cultures compared with known growth factors,[2]; growth factors at 100 ng,greater than or equal to that of known growth factors
same,increase in the expression of the anti-apoptotic gene bclXL,bclXL; [3],6 fold
same,increase in the expression of the anti-apoptotic gene bclXL,bclXL; EPO 1 U/ml for 24 hr,6 fold
same,"neuroprotective effect at 1 nm, growth factor withdrawal",PC-12 cells; 1 nm,no significant effect
same,"peak / optimum concentration for the neuroprotective effect, NGF withdrawal",PC-12 cells; 24 hr pre-treatment before NGF withdrawal,10 pm
same,viable cells / cell death after NGF withdrawal (in words),"PC-12 cells; 24 hr pre-treatment, 12 hr, 24 hr, 48 hr and 72 hr after withdrawal, listed as EPO",significant decrease in cell death; also recorded: increased the number of viable cells at each time point
